What all share (experiment): MTS cytotoxicity / antiproliferative assay
Common to all, as to assay type: cell-based

For experiment [1], the system named is HCT-116 (human colon carcinoma). The protocol: (§1) Cell lines included three human colon cancer cells: HT-29 (human colon adenocarcinoma), HCT116 (human colon carcinoma) and Caco-2 (human epithelial colorectal adenocarcinoma). In addition, normal human colon cells are included: CCD-^18Co (human colon fibroblasts). All cell lines are obtained from the American Type Culture Collection (ATCC, Rockville, Md., USA) and maintained at the University of Rhode Island.
(§2) The assay is carried out to measure the IC50 values for samples. […] Test samples and a positive control, etoposide 4 mg/mL (Sigma), are solubilized in DMSO by sonication. […] Control wells are also included on all plates. […] Each point on the curve is […]. Data (see tables 6 to 9) are expressed as mean±SE for three replications on each cell line.

Experiment [2] concerns HT-29 (human colon adenocarcinoma). The protocol:
as §1, §2

In experiment [3] the test system is Caco-2 (human epithelial colorectal adenocarcinoma). The protocol:
as §1, §2

The mark [4] stands for this setting: Homo sapiens, HCT-116, 72 h, Table 6 maple compounds, 72 h, unit inferred, read-out: HCT-116 72 h(IC50).
Where [5] appears, read: Homo sapiens, HT-29, 48 h, read-out: Antiproliferative activity HT-29 48 h (IC50), 48 h, pure isolated compounds.
Where [6] appears, read: Homo sapiens, HT-29, 72 h, 72 h, pure isolated compounds, read-out: Antiproliferative activity HT-29 72 h (IC50).
The mark [7] stands for this setting: Homo sapiens, Caco-2, 48 h, read-out: Antiproliferative activity Caco-2 48 h (IC50), 48 h, pure isolated compounds.
[8] abbreviates: Homo sapiens, Caco-2, 72 h, 72 h, pure isolated compounds, read-out: Antiproliferative activity Caco-2 72 h (IC50).
The mark [9] stands for this setting: Homo sapiens, HCT-116, 48 h, read-out: Antiproliferative activity HCT-116 48 h (IC50), 48 h, pure isolated compounds.
The mark [10] stands for this setting: Homo sapiens, HCT-116, 72 h, 72 h, pure isolated compounds, read-out: Antiproliferative activity HCT-116 72 h (IC50).
Where [11] appears, read: Homo sapiens, HCT-116, 72 h, 72 h, range given for the group, read-out: IC50 against HCT-116 cells at 72 h (activity ranking).
[12] abbreviates: Homo sapiens, Caco-2, 72 h, Table 6 maple compounds, 72 h, unit inferred, read-out: Caco-2 72 h(IC50).
The mark [13] stands for this setting: Homo sapiens, HCT-116, 48 h, read-out: HCT-116 48 h(IC50), Table 6 maple compounds, 48 h, unit inferred.
Setting [14] is: Homo sapiens, HT-29, 72 h, Table 6 maple compounds, 72 h, unit inferred, read-out: HT-29 72 h(IC50).
The mark [15] stands for this setting: Homo sapiens, Caco-2, 48 h, read-out: Caco-2 48 h(IC50), Table 6 maple compounds, 48 h, unit inferred.
Setting [16] is: Homo sapiens, HT-29, 48 h, read-out: HT-29 48 h(IC50), Table 6 maple compounds, 48 h, unit inferred.

Like-named read-outs stand apart in the source and are kept apart here.

Turning to `O=C(O)/C=C/c1ccc(O)cc1` [p-Coumaric Acid], in experiment [1] (setting [4]), the IC50 amounted to 124 µM.

As for `Oc1ccc(O)c(O)c1` [compound 52, 4-hydroxycatechol], the IC50 turned out to be 110 ± 2.3 µM in experiment [2] (setting [5]); 100 ± 1.5 µM in experiment [2] (setting [6]); 89.2 ± 1.9 µM in experiment [3] (setting [7]); 78.6 ± 1.2 µM in experiment [3] (setting [8]); 95 ± 3.4 µM in experiment [1] (setting [9]); 57.7 ± 3.4 µM in experiment [1] (setting [10]). Further, in experiment [1] (setting [11]), the 50% inhibitory concentration (IC50) was 42 to 67 µM.

With `O=C(O)c1cc(O)c(O)c(O)c1` [compound 17, gallic acid], the IC50 in experiment [3] (setting [8]) was 89.3 ± 1.7 µM; in experiment [3] (setting [12]), 89.3 µM; in experiment [1] (setting [9]), 64.9 ± 2.3 µM; in experiment [1] (setting [13]), 64.9 µM; in experiment [1] (setting [10]) it was 42.1 ± 1.9 µM; in experiment [1] (setting [11]) it was 42 to 67 µM. Further, the IC50 in experiment [1] (setting [4]) was 42.1 µM.

With `COc1cc(CCCO)ccc1OC(CO)C(O)c1ccc(OC2OC(C)C(O)C(O)C2O)c(OC)c1` (stereo not shown) [compound 55], the IC50 in experiment [2] (setting [5]) is 128.2 ± 1.1 µM; in experiment [2] (setting [6]), 121 ± 1.3 µM; in experiment [1] (setting [9]) it was 119 ± 1.4 µM; in experiment [1] (setting [10]), 104 ± 1.7 µM; in experiment [1] (setting [11]), 94 to 110 µM.

Consider `COc1cc(/C=C/CO)ccc1O` [compound 21, (E)-coniferol], for which the IC50 in experiment [2] (setting [6]) came out at 113 ± 1.9 µM; in experiment [2] (setting [14]) it was 113 µM; in experiment [3] (setting [7]), 112 ± 2 µM; in experiment [3] (setting [15]), 116 µM; in experiment [3] (setting [8]), 96.4 ± 2.9 µM; in experiment [3] (setting [12]), 96.4 µM. For the same molecule, the IC50 in experiment [1] (setting [9]) was 111 ± 1.5 µM; in experiment [1] (setting [13]), 111 µM; in experiment [1] (setting [10]) it was 84.6 ± 1.9 µM; in experiment [1] (Homo sapiens, HCT-116, 72 h, 72 h, range given for the group, unit inferred, read-out: IC50 against HCT-116 cells at 72 h (moderately active group)) it was 75 to 85 µM; in experiment [1] (setting [4]), 84.6 µM.

With `COc1cc(C(=O)O)cc(OC)c1O` [compound 19, syringic acid], the half-inhibitory concentration (IC50) in experiment [2] (setting [5]) is 126 ± 1.8 µM; in experiment [2] (setting [16]), 126 µM; in experiment [2] (setting [6]), 116 ± 1.8 µM; in experiment [2] (setting [14]) it was 116 µM; in experiment [1] (setting [9]) it was 119 ± 1.3 µM; in experiment [1] (setting [13]) it was 119 µM. Besides, the half-inhibitory concentration (IC50) in experiment [1] (setting [10]) is 108 ± 0.9 µM; in experiment [1] (setting [11]) it was 94 to 110 µM; in experiment [1] (setting [4]), 108 µM.

As to `COc1cc(/C=C/C(=O)O)ccc1O` [Ferulic Acid], the half-inhibitory concentration (IC50) was 128 µM in experiment [2] (setting [16]), 121 µM in experiment [2] (setting [14]), 119 µM in experiment [1] (setting [13]) and 104 µM in experiment [1] (setting [4]).

For `COc1cc([C@@H](O)[C@@H](CO)Oc2ccc(CCCO)cc2OC)ccc1O` [compound 6, erythro-guaiacylglycerol-β-O-4′-dihydroconiferyl alcohol], the half-inhibitory concentration (IC50) stood at 110 ± 2 µM in experiment [2] (setting [6]); 110 µM in experiment [2] (setting [14]); 93.9 ± 2 µM in experiment [3] (setting [7]); 93.9 µM in experiment [3] (setting [15]); 88.5 ± 1 µM in experiment [3] (setting [8]); 88.5 µM in experiment [3] (setting [12]). The IC50 is 107 ± 2.3 µM in experiment [1] (setting [9]); 107 µM in experiment [1] (setting [13]); 98.6 ± 3.2 µM in experiment [1] (setting [10]); 94 to 110 µM in experiment [1] (setting [11]); 98.6 µM in experiment [1] (setting [4]).

Take `O=C(O[C@H]1CO[C@H](CO)[C@@H](O)[C@@H]1O)c1cc(O)c(O)c(O)c1` [compound 72, ginnalin-C]: in experiment [2] (48 h, ginnalins), the “HT-29 48 h IC50” value amounted to 33.8 ± 2.0 µg/mL. Moreover, the “HT-29 72 h IC50” value in experiment [2] (72 h, ginnalins) was 30.1 ± 1.3 µg/mL. The IC50 in experiment [2] (Table 6 maple compounds, 72 h, unit inferred, read-out: HT-29 72 h(IC50)) worked out at 95.4 µM; in experiment [2] (read-out: HT-29 48 h(IC50), Table 6 maple compounds, 48 h, unit inferred) it was 107 µM; in experiment [3] (Table 6 maple compounds, 72 h, unit inferred, read-out: Caco-2 72 h(IC50)), 94.4 µM; in experiment [3] (read-out: Caco-2 48 h(IC50), Table 6 maple compounds, 48 h, unit inferred), 111 µM; in experiment [1] (Table 6 maple compounds, 72 h, unit inferred, read-out: HCT-116 72 h(IC50)), 70.7 µM; in experiment [1] (read-out: HCT-116 48 h(IC50), Table 6 maple compounds, 48 h, unit inferred), 86.5 µM. Also, in experiment [3] (48 h, ginnalins), the “Caco-2 48 h IC50” value came out at 35.0 ± 1.4 µg/mL. Also, the “Caco-2 72 h IC50” value in experiment [3] (72 h, ginnalins) is 29.8 ± 1.2 µg/mL. The “HCT-116 48 h IC50” value in experiment [1] (48 h, ginnalins) amounted to 27.0 ± 1.9 µg/mL. In addition, in experiment [1] (72 h, ginnalins), the “HCT-116 72 h IC50” value stood at 22.3 ± 2.4 µg/mL.

The record behind these values is US20130267474A1, “NOVEL PHYTOCHEMICALS FROM EXTRACTS OF MAPLE SYRUPS AND MAPLE TREES AND USES THEREOF” (UNIVERSITY OF RHODE ISLAND, priority 2010, published 2013).
